In brackets after ≈: the same amount, converted by molar mass. Where two headings read alike, the source gives them in different places.
Legend:
Assay in all cases: Minimum inhibitory concentration, conventional tube dilution method
Type in all cases: cell-based
Staph. aureus = conditions: Staphylococcus aureus; gram-positive; tube dilution, 37 degrees, 24 hours; between 1 and 6 strains; mg/100 cc; decimal comma; read-out: Minimal Inhibitory Concentration, Staph. aureus
Excerpt: (§1) The activity of some of the new nitrofuryl quinoline derivatives of the present invention is exemplified in Table 1 against a gram-positive (Staph. aureus), a gram-negative (Salmonella) bacterium and a fungus (Candida albicans). Table 1 indicates the minimum inhibitory concentration of the compound under reference in mg/100 cc required in order to inhibit the growth between 1 and 6 strains of each type. The measurements have been carried out by the conventional tube dilution method at 37 degrees after 24 hours.

Candida albicans = conditions: fungus, tube dilution, 37 degrees, 24 hours, between 1 and 6 strains, mg/100 cc, decimal comma, read-out: Minimal Inhibitory Concentration, Cand. Alb.
Excerpt: as §1

Salmonella = conditions: read-out: Minimal Inhibitory Concentration, Salm.
Excerpt: as §1

[1] = gram-negative, tube dilution, 37 degrees, 24 hours, between 1 and 6 strains, mg/100 cc, decimal comma

SMILES | MIC (Staph. aureus) | MIC (Candida albicans) | MIC (Salmonella; [1]) | MIC (Salmonella; 24 h)
O=[N+]([O-])c1ccc(-c2cc(CC(O)C(Cl)(Cl)Cl)nc3ccccc23)o1 (centres unmarked) [drawing 12 H NF H H H H] | 0.5 µg/mL (≈ 1.24 µM) | > 50 µg/mL | > 50 µg/mL | –
CCc1cc(-c2ccc([N+](=O)[O-])o2)c2ccc(OC)cc2n1 [C2 H5 H 5NF H H OCH3 H] | 0.01 to 0.5 µg/mL (≈ 0.0335 to 1.68 µM) | 10 µg/mL (≈ 33.5 µM) | 25 µg/mL (≈ 83.8 µM) | –
COc1ccc2c(-c3ccc([N+](=O)[O-])o3)cc(C(=O)O)nc2c1 [COOH H 5NF H H OCH3 H] | 0.5 µg/mL (≈ 1.59 µM) | 50 µg/mL (≈ 159 µM) | 10 µg/mL (≈ 31.8 µM) | –
COc1cc2nc(C)cc(-c3ccc([N+](=O)[O-])o3)c2cc1OC [CH3 H NF H OCH3 OCH3 H] | 0.5 to 1 µg/mL (≈ 1.59 to 3.18 µM) | > 50 µg/mL | 25 µg/mL (≈ 79.5 µM) | –
CCN(CC)C(=O)c1cc(-c2ccc([N+](=O)[O-])o2)c2ccccc2n1 [CON(C2 H5)2 H NF H H H H, 4-[2'-(5'-nitrofuryl)]quinoline-2-carboxylic acid diethylamide] | 0.5 to 1 µg/mL (≈ 1.47 to 2.95 µM) | > 50 µg/mL | > 50 µg/mL | –
CCCc1cc(-c2ccc([N+](=O)[O-])o2)c2ccc(C)cc2[n+]1[O-] [OC3 H7 H NF H H CH3 H] | 1 µg/mL (≈ 3.2 µM) | > 50 µg/mL | – | > 50 µg/mL
Cc1cc(C)c2nc(C)cc(-c3ccc([N+](=O)[O-])o3)c2c1 [CH3 H NF H CH3 H CH3, 2,6,8-trimethyl-4-[2'-(5'-nitrofuryl)]quinoline] | 0.05 to 0.1 µg/mL (≈ 0.177 to 0.354 µM) | > 50 µg/mL | > 50 µg/mL | –
CCc1cc(-c2ccc([N+](=O)[O-])o2)c2ccc(C)cc2n1 [C2 H5 H NF H H CH3 H] | 5 µg/mL (≈ 17.7 µM) | > 50 µg/mL | > 50 µg/mL | –
Cc1ccc2c(-c3ccc([N+](=O)[O-])o3)cc(C(=O)O)[n+]([O-])c2c1 [O COOH H NF H H CH3 H, 2-carboxy-4-[2'-(5'-nitrofuryl)]-7-methyl quinoline N-oxide] | 0.5 µg/mL (≈ 1.59 µM) | 50 µg/mL (≈ 159 µM) | – | –
CCCCOc1ccc2c(-c3ccc([N+](=O)[O-])o3)cc(C)[n+]([O-])c2c1 [O CH3 H NF H H OC4 H9 H] | 0.5 to 1 µg/mL (≈ 1.46 to 2.92 µM) | > 10 µg/mL | – | –
O=C1OCCN1N=Cc1cc(-c2ccc([N+](=O)[O-])o2)c2ccccc2n1 [drawing 10 H NF H H H H] | 0.1 to 0.5 µg/mL (≈ 0.284 to 1.42 µM) | 5 µg/mL (≈ 14.2 µM) | – | –
CCc1cc(-c2ccc([N+](=O)[O-])o2)c2cc(C)ccc2[n+]1[O-] [O C2 H5 H NF H CH3 H H] | 0.1 µg/mL (≈ 0.335 µM) | < 5 µg/mL | – | –
CCc1ccc2nc(CC)cc(-c3ccc([N+](=O)[O-])o3)c2c1 [C2 H5 H NF H C2 H5 H H, 2-ethyl-4-[2'-(5'-nitrofuryl)]-6-ethyl quinoline] | – | > 50 µg/mL | > 10 µg/mL | –
CCc1cccc2c(-c3ccc([N+](=O)[O-])o3)cc(C)nc12 [CH3 H NF H H H C2 H5] | – | 100 µg/mL (≈ 354 µM) | > 50 µg/mL | –
O=[N+]([O-])c1ccc(-c2ccc3ccccc3[n+]2[O-])o1 [O NF H H H H H H] | 0.5 µg/mL (≈ 1.95 µM) | < 5 µg/mL | – | –
COc1cc2c(-c3ccc([N+](=O)[O-])o3)cc(C)[n+]([O-])c2cc1OC [O CH3 H NF H OCH3 OCH3 H] | – | > 50 µg/mL | > 50 µg/mL | –
Cc1cc(-c2ccc([N+](=O)[O-])o2)c2ccc(N)c(C)c2n1 [CH3 H NF H H NH2 CH3] | – | 5 µg/mL (≈ 17.6 µM) | – | 1 to 5 µg/mL (≈ 3.53 to 17.6 µM)
CCc1ccc2nc(C(C)C)cc(-c3ccc([N+](=O)[O-])o3)c2c1 [CH(CH3)2 H 5NF H C2 H5 H H, 2-isopropyl-4-[2'-(5'-nitrofuryl)]-6-ethyl quinoline] | 0.5 µg/mL (≈ 1.61 µM) | 50 µg/mL (≈ 161 µM) | – | –
CCc1cc(-c2ccc([N+](=O)[O-])o2)c2ccc(OC)cc2[n+]1[O-] [O C2 H5 H NF H H OCH3 H] | 0.01 to 0.5 µg/mL (≈ 0.0318 to 1.59 µM) | > 50 µg/mL | – | –
CCCCOc1ccc2c(-c3ccc([N+](=O)[O-])o3)cc(C)nc2c1 [CH3 H 5NF H H OC4 H9 H, 2-methyl-4-[2'-(5'-nitrofuryl)]-7-n-butoxy quinoline] | 0.5 µg/mL (≈ 1.53 µM) | > 50 µg/mL | – | –
CCc1cc(-c2ccc([N+](=O)[O-])o2)c2cc(C)ccc2n1 [C2 H5 H NF H CH3 H H, 2-ethyl-4-[2'-(5'-nitrofuryl)]-6-methyl quinoline] | – | < 5 µg/mL | – | > 10 µg/mL
